These results are taken from US5576433A, “Fluorescent calcium indicators targeted to specific intracellular environments” (priority 1994, dated 1996).

One data set relates to Tradescantia cells. The conditions noted are these: within a short time; Hepler and Poenie, unpublished; cited from earlier work.
Data set [1] concerns leakage and compartmentalization of fura-2. The conditions noted are these: cited from earlier work.
Data set [2] in a line: pH sensitivity of the calcium dissociation constant (Table 2). In kind it is binding. The conditions noted are these: 100 mM KCl, 10 mM MOPS. From the text:
The calcium dissociation constant of BAPTA-like calcium chelators and indicators is strongly affected by electron withdrawing effects of substituents on the BAPTA aromatic rings. The zwitterionic indicators described herein each contain an ionizable amine. The difference in electron withdrawing effects of the ionized and unionized amine could potentially communicate to BAPTA, creating a situation were the calcium affinity varied with pH. The design of PE3 and FFP18 was aimed at minimizing or eliminating this possibility by insulating the ionizable amine from the BAPTA ring with an aliphatic spacer containing one or more carbons. To test the effectiveness of this design, the calcium Kd of PE3 and FFP18 was measured at different pH values and compared to the values obtained for fura-2. […] Thus, the aim of the test was to determine whether the piperazine amino group gives the indicator increased pH sensitivity.
On page 36 of U.S. Pat. No. 4,603,209 (Tsien, et. al., 1987 Aug. 25), R2 is claimed as H, CH3, F, Cl, Br and […]. The R2 of PE3 and FFP18 is none of these claimed in that patent.

In data set [3] the test system is 322 T lymphoma cells. The data set can be described thus: Leakage of indicator from loaded cells / drift of apparent baseline calcium. Format: cell-based. The conditions noted are these: for apparent baseline intracellular calcium / dye leakage (in words): cells loaded with AM ester 1 hour, HBSS with 1% fetal bovine serum. Background: Calcium flux is commonly read through the fluorescence of an indicator in the cells.
Procedure: The T cell lymphoma cell line was loaded with 1 mM fura-2/AM or 1 mM PE3/AM for 30 minutes. Afterwards, an aliquot of dye loaded cells were placed in a cuvette and the fluorescence at 360 nm was recorded. Then, 5 mM Ni^2+ was added to quench any indicator that was outside the cells. The remainder of the loaded cell suspension was incubated for 1 hour at 37° C. Then a second aliquot was removed placed in a cuvette together with 5 mM Ni^2+ and fluorescence recorded. The difference in fluorescence of Ni^2+ treated cells between the 0 hour time point and the one hour time point represents indicator that leaked out of the cells into the extracellular medium over the 1 hour incubation period.
A quantity of 322 T-lymphoma cells were loaded with either 1 mM fura-2/AM or 1 mM PE3/AM for 1 hour, washed and resuspended in HBSS containing 1% fetal bovine serum. An aliquot of the loaded cell suspension was then placed in the cuvette of an Alpha Scan fluorometer and the fluorescence signal was recorded over time, as the cells were alternately excited at 340 nm and 380 nm. Calcium concentration was calculated from the 350/385 nm fluorescence ratio as described by Tsien, et al.(1985).
The T cell lymphoma cell line was loaded with 1 mM fura-2/AM or 1 nM PE3/AM as for Example 3. Afterwards, an aliquot of dye loaded cells were placed in a cuvette and the fluorescense at 360 nm was recorded. Then 5 nM Ni^2+ was added to quench any indicator that was outside the cells. The remainder of the loaded cell suspension was incubated for 1 hour at 37° C. Then a second aliquot was removed, placed in a cuvette together with 5 mM Ni^2+ and fluorescense recorded. The difference in fluorescense of Ni^2+ treated cells between 0 hour time point and the one hour time point represents indicator that leaked out of the cells into the extracellular medium over the 1 hour incubation period.

Data set [4] deals with intracellular [Ca^2+ ] transients. The data set can be described thus: Recorded versus calculated calcium influx. Format: cell-based. The conditions noted are these: 4 cells. As to the method:
FIG. 13 and FIG. 13A show the relationship between the intracellular [Ca^2+ ] transients over time for fura-2 and FFP18. In Example 7, the relationship between the intracellular [Ca^2+ ] transients reported by FFP18 or fura-2 and calculated [Ca^2+ ] transients representing calcium influx are shown as a function of time. The amount of Ca^2+ entering the cell across the membrane was calculated by integrating the inward current signal and converting the charge to moles of Ca^2+ per cell volume. This [Ca^2+ ] was divided by the average buffering capacity of these cells. […] The [Ca^2+ ] transients reported by the calcium indicators are shown by the more noisy traces.
The amount of Ca^2+ entering the cell across the membrane was calculated by integrating the inward current signal and converting the charge to moles of Ca^2+ per cell volume. This [Ca^2+ ] was divided by the average buffering capacity of these cells. […]
In 4 cells where the [Ca^2+ ] transient was recorded using fura-2, the magnitude of the recorded and calculated increases in [Ca^2+ ] were similar. The ratio of calcium influx measured using fura-2 to the calcium influx calculated from the integral of the current at the 200 msec time point gives a value of 0.9+/-0.05 [nM (recorded)/nM(calculated)].

The subject of the next data set is muscle calcium. The conditions noted are these: Hollingsworth and Baylor; cited from earlier work.
In data set [5] the test system is calcium transient during mitosis. The conditions noted are these: Kao et al.; cited from earlier work.
Data set [6] is described as follows: Spectral properties (absorbance and fluorescence with and without calcium). Format: physicochemical.
Data set [7] is described as follows: Calcium Kd of indicator in solution (Table 1). In kind it is binding.
Procedure: Calcium concentration was varied by adjusting ratio of CaEGTA/EGTA, so that free calcium varied from less than 1 nM to 1 mM. During the titration, temperature was held constant at 37° C. by a circulating water bath and Mg^++ levels were held at a fixed concentration of 1 mM. The excitation spectra were recorded between 300 and 400 nm by a Photon Technology Intl. Alpha Scan fluorometer where the excitation band width was set 6 nm and the emission was collected at 485 nm with 4 nm band width. […] 1M K2 CaEGTA was added directly to the solution to incrementally increase free calcium.
Calcium concentration was varied by adjusting ratio of CaEGTA/EGTA so that free calcium varied from less than 1 nM to 1 mM. During the titration, temperature was held constant at 37° C. by a circulating water bath and Mg++ levels were held at a fixed concentration of 1 mM. The excitation spectra were recorded between 300 and 400 nm by a Photon Technology Intl. Alpha Scan fluorometer where the excitation band width was set 6 nm and the emission was collected at 485 nm with 4 nm band width. […] 1M K2 CaEGTA was added directly to the solution to incrementally increase free calcium.
^c 100 mM KCl, 10 mM MOPS, pH 7.3, 20° C.
The nature of data set [8]: Magnesium Kd of indicator (Table 1). In kind it is binding. Here is the method:
(§1) The excitation spectrum was recorded of 1 μM FFP18 in 2.5 ml of 130 mM KCl, 20 mM NaCl, 1 mM EGTA, 10 mM MOPS, pH 7.05 at 37° C. Then 25 μl of the solution was replaced with 25 μl of a solution containing 1 μM of that same dye, 111.2 mM MgC12, 12.2 mM EGTA, 10 mM MOPS, pH 7.05. This exchange yielded 1 mM free Mg^2+ 0.2 and 5 mM free Mg^2+ were obtained by successively exchanging 25.25 and 76.53 μl of the original solution with that of the latter solution containing the high concentration of Mg^2+. Emission was collected at 490 nm for fura-PE3 and 485 nm for FFP18, 4 nm band pass, and excitation 5 nm band pass.
as §1, with “1 μM PE3 in 2.5” for “1 μM FFP18 in 2.5”, “1 μM PE3, 111.2 mM” for “1 μM of that same dye, 111.2 mM”, “mM free Mg^2+. The 2 and 5” for “mM free Mg^2+ 0.2 and 5”, “free Mg^2+ concentrations were obtained” for “free Mg^2+ were obtained”

Data set [9] relates to 322 T lymphoma cells. The data set can be described thus: Response of PE3 loaded cells to changes in intracellular calcium.
The conditions of data set [10]: read-out: apparent Kd for EGTA (assumed), cited from earlier work.
A further data set has as its system PTK1 cells. The conditions noted are these: cited from earlier work.
The mark [11] stands for this setting: pH 6.9, 20° C., read-out: calcium Kd at pH 6.9.
[12] abbreviates: pH 7.3, 20° C., read-out: calcium Kd at pH 7.3.

Like-named read-outs stand apart in the source and are kept apart here.

Consider `Cc1ccc(N(CC(=O)O)CC(=O)O)c(OCCOc2cc(-c3c4ccc(=[N+](C)C)cc-4oc4cc(N(C)C)ccc34)ccc2N(CC(=O)O)CC(=O)O)c1` [rhod-2], for which the “transfer of cytosolic indicator to vacuole (in words)” value in the data set with Tradescantia cells was “differed in this respect”.
Regarding `CCCN(CCC)S(=O)(=O)c1ccc(C(=O)O)cc1` [probenecid], the “effect on leakage and compartmentalization of fura-2” value in data set [1] is “help reduce leakage and compartmentalization”.
As to `Cc1ccc(N(CC(=O)O)CC(=O)O)c(OCCOc2cc3cc(-c4ncc(C(=O)O)o4)oc3cc2N(CC(=O)O)CC(=O)O)c1` [fura-2], the figures for the Kd in data set [2] (setting [11]) and in data set [2] (setting [12]) were 0.216 ± 0.004 µM and 0.161 ± 0.002 µM, respectively. In the data set with 322 T lymphoma cells [3], the “apparent baseline intracellular calcium / dye leakage (in words)” value is “continuous increase in apparent intracellular calcium levels”. The “magnitude of recorded versus calculated increase in [Ca^2+ ] (in words)” value in data set [4] is on record as “similar”. Further, the “ratio of calcium influx recorded by indicator to calcium influx calculated” value in [4] (calculated from integral of the current at the 200 msec time point (time point stated for fura-2)) is given as 0.9+/-0.05 nM (recorded)/nM(calculated). Also, in the data set on Tradescantia cells, the “transfer of cytosolic indicator to vacuole (in words)” value is “virtually all of the cytosolic indicator was transferred to the vacuole”. In addition, in the data set on muscle calcium, the “ability to follow rapid changes in muscle calcium” value is “not fast enough to follow rapid changes in muscle calcium and was unable to track calcium levels at their peak”. Besides, the “detection of calcium transient during mitosis” value in data set [5] was “seldom seen”.
Take `O=C(O)CN1CCN(C(=O)CCc2ccc(N(CC(=O)O)CC(=O)O)c(OCCOc3cc4cc(-c5ncc(C(=O)O)o5)oc4cc3N(CC(=O)O)CC(=O)O)c2)CC1` [PE3]: in data set [6] (Ca bound), the “Fluorescence Quantum Efficiency, Ca bound” value was found to be 0.27; the “Peak Absorption Wavelength, Ca bound” value is reported as 335 nm; the “Peak Emission Wavelength, Ca bound” value was determined as 495 nm. In data set [6] (Free anion), the “Fluorescence Quantum Efficiency, Free anion” value was “.043”; the “Peak Absorption Wavelength, Free anion” value turned out to be 364 nm; the “Peak Emission Wavelength, Free anion” value was 508 nm. In addition, the “absorbance, excitation, emission and quantum efficiency (in words)” value in data set [6] (presence and absence of calcium) is “all typical of fura-2”. For the same molecule, the “calcium binding affinity compared with fura-2 (in words)” value in data set [7] was “somewhat weaker than that of fura-2”. Also, in data set [7] (20° C., 100 mM KCl, 10 mM MOPS, pH 7.3 (footnote c)), the Kd was 0.204 µM. Besides, in [7] (37° C., 130 mM KCl, 20 mM NaCl, 1 mM free MgCl2, MOPS, pH 7.05 (footnote a)), the Kd came to 0.209 µM. In data set [8] (20° C.), this molecule came in with a Kd of 4300 µM. Besides, in [8] (37° C.), the Kd came to 4000 µM. The Kd in data set [2] (setting [11]) turned out to be 0.269 ± 0.003 µM. In [2] (setting [12]), the Kd stood at 0.204 ± 0.004 µM. Further, in the data set on 322 T lymphoma cells [3], the “leakage and compartmentalization (in words)” value was “resists leakage and compartmentalization”; the “apparent baseline intracellular calcium / dye leakage (in words)” value is “small change in baseline intracellular calcium levels reflects the lower leakage rate out of the cell”. In the data set on 322 T lymphoma cells [9] (after Concanavalin A), the “fluorescence response at 340 nm to increase in calcium” value is reported as “fluorescense at 340 nm increases” and the “fluorescence response at 380 nm to increase in calcium” value is “fluorescense at 380 nm decreases”. Moreover, the “fluorescence response at 340 nm and 380 nm” value in the data set on 322 T lymphoma cells [9] (after ionomycin) is “even greater response of the indicator at 340 nm and 380 nm”. Further, the “fluorescence after reducing free calcium with EGTA” value with 322 T lymphoma cells [9] (digitonin lysed, EGTA added) is on record as “fluorescense at 380 nm now becomes much brighter while the fluorescense at 340 becomes dim”.
Consider `O=C(O)CN(CCOCCOCCN(CC(=O)O)CC(=O)O)CC(=O)O` [EGTA, ethylene glycol bis(beta-aminoethyl ether)N,N,N'N'tetraacetic acid], for which the Kd was 0.594 µM in [10] (pH 6.9, 20° C.) and 0.0954 µM in [10] (pH 7, 20° C.).
`CC(=O)OCOC(=O)CN(CC(=O)OCOC(C)=O)c1ccc(C)cc1OCCOc1cc2cc(-c3ncc(C(=O)OCOC(C)=O)o3)oc2cc1N(CC(=O)OCOC(C)=O)CC(=O)OCOC(C)=O` [fura-2/AM]: the “loading in cells (in words)” value with PTK1 cells is listed as “consistent failure”.
As to `O=C1C(CC[S+]([O-])c2ccccc2)C(=O)N(c2ccccc2)N1c1ccccc1` (stereo not shown) [sulfinpyrazone], the “effect on leakage and compartmentalization of fura-2” value in data set [1] was “help reduce leakage and compartmentalization”.
